What all share (assay type): toxicity, cell-based
One data set deals with HEK-293T. Description: Incucyte cell viability with HEK293T. The note with it: human, 10 µM, compound concentration 10 uM.
In the next data set the test system is Fibroblast. Briefly: Incucyte cell viability with human fibroblast. Particulars: 10 µM, compound concentration 10 uM.
A further data set deals with U2OS. Description: Incucyte cell viability with U2OS. Particulars: human, 10 µM, compound concentration 10 uM.

The values that follow come from ChEMBL document CHEMBL5303304, “EUbOPEN Chemogenomics Library - IncuCyte” (2023).
Also: unitless GR value; below 1 slowed growth and below 0 cell loss.

Turning to `COc1cc(-c2cc(-c3cccc(O)c3)cnc2N)cc(OC)c1OC`, the “Growth Rate” value in the data set with HEK-293T (6 h, replicate number 1) is listed as -0.66; in the data set with HEK-293T (6 h, replicate number 2), 0.38; in the data set on HEK-293T (12 h, replicate number 1), -0.58; in the data set on HEK-293T (12 h, replicate number 2) it was 0.41; with HEK-293T (18 h, replicate number 1), -0.43; in the data set on HEK-293T (18 h, replicate number 2), 0.33. Besides, the “Growth Rate” value with HEK-293T (24 h, replicate number 1) is -0.24; in the data set with HEK-293T (24 h, replicate number 2) it was 0.42; in the data set on Fibroblast (0 h, replicate number 1), 0.1; with Fibroblast (0 h, replicate number 2), -0.98; with Fibroblast (6 h, replicate number 1), -0.21; in the data set with Fibroblast (12 h, replicate number 1), -1. Also, the “Growth Rate” value in the data set on Fibroblast (18 h, replicate number 1) worked out at 0.59; in the data set on U2OS (12 h, replicate number 1), 0.89; with U2OS (12 h, replicate number 2) it was 0.96; in the data set with U2OS (18 h, replicate number 1) it was 0.73; in the data set on U2OS (18 h, replicate number 2), 0.85; in the data set on U2OS (24 h, replicate number 1) it was 0.75. Moreover, the “Growth Rate” value in the data set with U2OS (24 h, replicate number 2) is reported as 0.86.

For `C[C@@H](NC(=O)Cc1ccc(C2CC2)cc1)c1ccc(OCC(F)(F)F)cn1`, the “Growth Rate” value in the data set on HEK-293T (6 h, replicate number 1) was 0.39; with HEK-293T (6 h, replicate number 2), 0.17; with HEK-293T (12 h, replicate number 2), 0.64; in the data set with HEK-293T (18 h, replicate number 2) it was 0.63; in the data set with HEK-293T (24 h, replicate number 2) it was 0.68; in the data set on Fibroblast (0 h, replicate number 1), -0.4. The “Growth Rate” value with Fibroblast (6 h, replicate number 1) was 0.85; with Fibroblast (6 h, replicate number 2), -0.99; in the data set with Fibroblast (12 h, replicate number 1), -1; in the data set on Fibroblast (12 h, replicate number 2), 0.67; with Fibroblast (18 h, replicate number 1), -0.27; in the data set with Fibroblast (18 h, replicate number 2) it was 0.93. Besides, the “Growth Rate” value in the data set on Fibroblast (24 h, replicate number 1) is 0.8; in the data set on Fibroblast (24 h, replicate number 2) it was 0.89; with U2OS (0 h, replicate number 1), -0.06; in the data set with U2OS (0 h, replicate number 2), -0.85; in the data set with U2OS (6 h, replicate number 2), 0.67; with U2OS (12 h, replicate number 2) it was 0.53. Besides, the “Growth Rate” value in the data set on U2OS (18 h, replicate number 2) is given as 0.79; in the data set on U2OS (24 h, replicate number 2), 0.87.

Take `Cc1nnsc1C(=O)Nc1ccc(-n2nc(C(F)(F)F)cc2C(F)(F)F)cc1`: the “Growth Rate” value in the data set on HEK-293T (6 h, replicate number 1) is listed as 0.1; with HEK-293T (6 h, replicate number 2), -0.01; in the data set on HEK-293T (12 h, replicate number 1) it was 0.96; in the data set with HEK-293T (12 h, replicate number 2), 0.28; in the data set with HEK-293T (18 h, replicate number 1) it was 0.7; with HEK-293T (18 h, replicate number 2), 0.39. The “Growth Rate” value was 0.58 with HEK-293T (24 h, replicate number 1); 0.42 in the data set with HEK-293T (24 h, replicate number 2); 0.89 in the data set on Fibroblast (0 h, replicate number 2); 0.37 in the data set on Fibroblast (6 h, replicate number 1); -0.36 in the data set on Fibroblast (6 h, replicate number 2); -1 in the data set on Fibroblast (12 h, replicate number 1). Further, the “Growth Rate” value was 0.73 with Fibroblast (12 h, replicate number 2); 0.94 with Fibroblast (18 h, replicate number 2); 0.74 in the data set with Fibroblast (24 h, replicate number 2); -0.95 in the data set with U2OS (0 h, replicate number 2); 0.52 in the data set with U2OS (6 h, replicate number 1); -0.02 in the data set on U2OS (6 h, replicate number 2). For the same compound, the “Growth Rate” value is 0.51 with U2OS (12 h, replicate number 1); 0.42 in the data set with U2OS (12 h, replicate number 2); 0.97 with U2OS (18 h, replicate number 1); 0.63 in the data set on U2OS (18 h, replicate number 2); 0.9 in the data set with U2OS (24 h, replicate number 1); 0.68 in the data set with U2OS (24 h, replicate number 2).

For `C[C@@H](Cn1c(=O)[nH]/c(=N\c2ccc(Oc3ccccn3)cc2)n(Cc2ccc(Cl)cc2)c1=O)C(=O)O`, the “Growth Rate” value is listed as 0.2 in the data set with HEK-293T (6 h, replicate number 1); 0.62 in the data set with HEK-293T (6 h, replicate number 2); 0.97 in the data set with HEK-293T (18 h, replicate number 1); -0.1 in the data set on Fibroblast (6 h, replicate number 1); -1 in the data set with Fibroblast (6 h, replicate number 2); 0.04 with Fibroblast (12 h, replicate number 2). The “Growth Rate” value is given as 0.75 in the data set on Fibroblast (18 h, replicate number 2); 0.85 in the data set with Fibroblast (24 h, replicate number 2); -0.83 in the data set with U2OS (0 h, replicate number 2); 0.93 with U2OS (6 h, replicate number 2); 0.97 in the data set with U2OS (12 h, replicate number 1); 0.99 with U2OS (18 h, replicate number 1).
